Assay results taken from patent publication US11339142B2, “Di-substituted pyrazole compounds for the treatment of diseases” (FGH BIOTECH, INC., priority 2016, dated 2022).

Tests used:
[1] = test system: PCSK9 expression; experiment: Quantitative PCR (qPCR) inhibition assay, PCSK9 mRNA expression in Hep G2 cells; assay type: cell-based; conditions: Homo sapiens, HepG2 cells, 24 hours incubation, mRNA by qPCR; for inhibition at 0.32 µM: 320 nM, read-out: PCSK9 Inhibition Percentage (%) at 320 nM
Protocol: Hep G2 cells were obtained from ATCC and grown in DMEM supplemented with 5% FBS in a 5% CO2 incubator at 37° C. For the assay the cells were plated in 24 well plates at a concentration of 100,000 cells/well in DMEM with 5% FBS. The compounds were serially diluted in DMSO from 0.1 to 20 mM and then diluted 1:1000 in growth medium. The medium was added to the cells in duplicate 24 hours after plating. After 24 hours of incubation the RNA was isolated from the cells using the illustra RNAspin Mini kit (GE Healthcare). For the quantitative PCR the RNA was analyzed using the Power SYBR® Green PCR Master Mix (Applied Biosystems) and gene specific primers. The reaction was run on a StepOnePlus Real-Time PCR System (Thermo Fisher Scientific) and the instrument software was used to determine the Ct values. The fold change of mRNA expression relative to the vehicle control was calculated. Primer sequence was as follows: PCSK9, 5′-[…]-3′/5′-[…]-3′.
(§1) All data for Biological Examples 1a and 1b were measured in HepG2 cells. % inhibition of SCD1 expression, % inhibition of PCSK9 expression, and PCSK9 IC50 data are provided in Table 1. NA means the compound was not active at the concentration tested.

[2] = test system: SCD1 expression; experiment: Quantitative PCR (qPCR) inhibition assay, SCD1 mRNA expression in Hep G2 cells; assay type: cell-based; conditions: Homo sapiens, HepG2 cells, 24 hours incubation, mRNA by qPCR, read-out: SCD1 Inhibition Percentage (%) at 1 μM
Protocol: Hep G2 cells were obtained from ATCC and grown in DMEM supplemented with 10% FBS in a 5% CO2 incubator at 37° C. For the assay the cells were plated in 96 well plates at a concentration of 75,000 cells/well in DMEM with 5% FBS. The compounds were serially diluted in DMSO from 30 to 0.1 mM and then diluted 1:1000 in growth medium. The medium was added to the cells in duplicate 24 hours after plating. After 24 hours of incubation the RNA was isolated from the cells using the RNAqueous®-96 Total RNA Isolation Kit (Ambion). The eluted RNA was reverse transcribed using the Cells-to-Ct kit reverse transcriptase (Ambion). For the quantitative PCR the cDNA was analyzed using the Power SYBR® Green PCR Master Mix (Applied Biosystems) and gene specific primers. The reaction was run on an ABI7300 thermocycler and the instrument software was used to determine the Ct values. The fold change of mRNA expression relative to the vehicle control was calculated using the method by Livak. Primer sequence was as follows: SCD1, 5′-[…]-3′/5′-[…]-3′.
as §1

Row | Structure (SMILES) | inhibition at 0.32 µM [1] [%] | inhibition at 1 µM [2] [%] | IC50 [1] [nM]
1 | CCCn1cc(-n2cc(-c3ccc(OC(C)CC)nc3C)cn2)ccc1=O (stereo not shown) [Example 3] | 10 to 40 | ≥ 40 | –
2 | CCCn1cc(-n2cc(-c3ccc(OCC(C)C)nc3C)cn2)ccc1=O [Example 5] | ≥ 40 | ≥ 40 | –
3 | CCCn1cc(-n2cc(-c3ccc(OCC4CC4)nc3C)cn2)ccc1=O [Example 6] | 10 to 40 | ≥ 40 | 150 to 600
4 | CCCn1cc(-n2cc(-c3ccc(O[C@@H](C)CC)nc3C)cn2)ccc1=O [Example 9] | ≥ 40 | ≥ 40 | –
5 | CCCn1cc(-n2cc(-c3ccc(O[C@H](C)CC)nc3C)cn2)ccc1=O [Example 10] | ≥ 40 | ≥ 40 | –
6 | CCCn1cc(-n2cc(-c3ccc(S(=O)(=O)C(C)C)cc3Cl)cn2)ccc1=O [Example 17] | ≥ 40 | ≥ 40 | 150 to 600
7 | CCCn1cc(-n2cc(-c3ccc(S(=O)(=O)CC(C)C)cc3Cl)cn2)ccc1=O [Example 18] | 10 to 40 | 10 to 40 | –
8 | CCCn1cc(-n2cc(-c3ccc(S(=O)(=O)C4CCC4)cc3F)cn2)ccc1=O [Example 22] | – | ≥ 40 | 150 to 600
9 | CCCn1cc(-n2cc(-c3ccc(S(=O)(=O)C4CCC4)cc3Cl)cn2)ccc1=O [Example 23] | – | ≥ 40 | ≤ 150
10 | CCCn1cc(-n2cc(-c3ccc(S(=O)(=O)CC)cc3Cl)cn2)ccc1=O [Example 55, 5-(4-(2-chloro-4-(ethylsulfonyl)phenyl)-1H-pyrazol-1-yl)-1-propylpyridin-2(1H)-one] | – | ≥ 40 | –
11 | CCCn1cc(-n2cc(-c3ccc(S(=O)(=O)C4CC4)cc3)cn2)ccc1=O [Example 64] | – | ≥ 40 | –
